# In article PMC5574958, “Radiosynthesis and Preclinical Evaluation of [^18F]F-DPA, A Novel Pyrazolo[1,5a]pyrimidine Acetamide TSPO Radioligand, in Healthy Sprague Dawley Rats” (Molecular Imaging and Biology, 2017):
# Tests used:
# [1] = RadioTLC analyses of radiometabolites in plasma and brain homogenates; type: in vivo, Sprague Dawley rats; settings: for Unchanged radiotracer, share of radioactivity in the brain: brain homogenate
# Protocol: The blood samples were taken into Li-heparin tubes and centrifuged (3000×g, 10 min). The plasma was transferred to an Eppendorf tube and the plasma proteins were precipitated by addition of 1.5 parts of MeOH by volume. Following a further centrifugation (12,000×g, 4 min), 20 μl of the supernatant was spotted onto an aluminum-backed silica gel 60/Kieselguhr F254 TLC plate (EMD Millipore 1.05567.0001, Merck Millipore, Darmstadt, Germany).
# Brain samples from the cortex were homogenized with approximately 200 μl of 1:1 v/v of MeOH and water; the mixture was transferred to an Eppendorf tube and centrifuged (12,000×g, 4 min). An aliquot (20 μl) of the supernatant was spotted onto the TLC plate.
# The TLC plates were developed with a mixture of dichloromethane and methanol (9:1, v/v) for a distance of 6 cm. Following this, the plates were exposed onto an imaging plate (Fuji BAS Imaging Plate TR2025, Fuji Photo Film Co., Ltd., Tokyo, Japan) for approximately two half-lives of fluorine-18 (3.5 to 4 h). After the exposure, the imaging plates were scanned using a BAS-5000 reader (Fuji, Japan) with a resolution of 50 μm and the saved images were analyzed using TINA software (version 2.10 g, Raytest, Isotopenmessgeräte, GmbH, Straubenhardt, Germany).
# [2] = Plasma protein binding (ultrafiltration of plasma after tracer injection); type: in vivo, Sprague Dawley rats; settings: 15 min after injection, 30 kDa ultrafiltration, n = 3
# Protocol: After 15 min, the animals were sacrificed and the blood was collected into Li-heparin tubes and centrifuged (3000×g, 10 min). A 10-μl aliquot of the plasma was spotted onto a TLC plate; following this, the remaining plasma was filtered by ultrafiltration using Microsep 30K Omega (Pall Life Sciences, Mexico) with a cut-off of 30 kDa. A 10-μl aliquot of the resulting supernatant was also spotted onto the TLC plate. The plates were exposed onto an imaging plate (Fuji BAS Imaging Plate TR2025, Fuji Photo Film Co., Ltd., Tokyo, Japan) for approximately two half-lives of fluorine-18 (3.5 to 4 h). After the exposure, the imaging plates were scanned using a BAS-5000 reader (Fuji, Japan) with a resolution of 50 μm and the saved images were analyzed using TINA software (version 2.10 g, Raytest, Isotopenmessgeräte, GmbH, Straubenhardt, Germany).
# TSPO = settings: read-out: K i (TSPO affinity); cited from earlier work
# Ex vivo biodistribution = type: in vivo, Sprague Dawley rats; settings: for Uptake of fluorine-18-radioactivity, Harderian gland / Uptake of fluorine-18-radioactivity, Brain / Uptake of fluorine-18-radioactivity, Brown fat / Uptake of fluorine-18-radioactivity, Eye x2 / Uptake of fluorine-18-radioactivity, Injection site (tail) / Uptake of fluorine-18-radioactivity, Large int. Wall + contents / Uptake of fluorine-18-radioactivity, Liver / Uptake of fluorine-18-radioactivity, Lung / Uptake of fluorine-18-radioactivity, Muscle / Uptake of fluorine-18-radioactivity, Salivary x2 / Uptake of fluorine-18-radioactivity, Small int. wall + contents / Uptake of fluorine-18-radioactivity, Stomach wall + contents / Uptake of fluorine-18-radioactivity, Testis: mean, n = 3
# Protocol: After sacrifice (5, 15, 30, 60, and 90 min after injection, n = 3, for every time point and radiotracer), the blood was collected into Li-heparin tubes and transcardial perfusion with saline was conducted rapidly in order to eliminate the blood from the whole body. Following this, the organs of the animals were collected, individually weighed, and the radioactivity was measured using a gamma counter (Wizard^2 3 × 3″, PerkinElmer, Turku, Finland). The decay-corrected radioactivity is reported as percentage of injected dose per gram (%ID/g).
# CBR = settings: read-out: K i CBR (selectivity); cited from earlier work
structure (smiles),measurement,setting,value
CCN(CC)C(=O)Cc1c(-c2ccc([18F])cc2)nn2c(C)cc(C)nc12 [[^18F]F-DPA],"Unchanged radiotracer, share of radioactivity in the brain",[1]; 20–30 min after injection,greater than 95%
same,"Unchanged radiotracer, share of radioactivity in the brain","[1]; 90 min after injection, n = 3",93.5 ± 2.8%
same,"Unchanged radiotracer, share of radioactivity in the plasma","[1]; plasma, 90 min after injection, n = 3",28.3 ± 6.4%
same,Fraction of radioactivity unbound to the plasma proteins,[2],6.6 ± 3.1%
same,Ki,TSPO,1.7 nM
same,"Uptake of fluorine-18-radioactivity, Harderian gland",Ex vivo biodistribution; 5 min after injection,0.54 %ID/g tissue
same,"Uptake of fluorine-18-radioactivity, Harderian gland",Ex vivo biodistribution; 15 min after injection,0.59 %ID/g tissue
same,"Uptake of fluorine-18-radioactivity, Harderian gland",Ex vivo biodistribution; 30 min after injection,0.62 %ID/g tissue
same,"Uptake of fluorine-18-radioactivity, Harderian gland",Ex vivo biodistribution; 60 min after injection,0.83 %ID/g tissue
same,"Uptake of fluorine-18-radioactivity, Harderian gland",Ex vivo biodistribution; 90 min after injection,0.55 %ID/g tissue
same,Accumulation of radioactivity in the bone (defluorination in vivo),"Ex vivo biodistribution; after the initial uptake at 5 min, up to 90 min",no significant accumulation of radioactivity in the bone
same,"Uptake of fluorine-18-radioactivity, Brain",Ex vivo biodistribution; 5 min after injection,0.23 %ID/g tissue
same,"Uptake of fluorine-18-radioactivity, Brain",Ex vivo biodistribution; 15 min after injection,0.17 %ID/g tissue
same,"Uptake of fluorine-18-radioactivity, Brain",Ex vivo biodistribution; 30 min after injection,0.09 %ID/g tissue
same,"Uptake of fluorine-18-radioactivity, Brain",Ex vivo biodistribution; 60 min after injection,0.07 %ID/g tissue
same,"Uptake of fluorine-18-radioactivity, Brain",Ex vivo biodistribution; 90 min after injection,0.06 %ID/g tissue
same,"Uptake of fluorine-18-radioactivity, Brown fat",Ex vivo biodistribution; 5 min after injection,0.28 %ID/g tissue
same,"Uptake of fluorine-18-radioactivity, Brown fat",Ex vivo biodistribution; 15 min after injection,0.43 %ID/g tissue
same,"Uptake of fluorine-18-radioactivity, Brown fat",Ex vivo biodistribution; 30 min after injection,1.11 %ID/g tissue
same,"Uptake of fluorine-18-radioactivity, Brown fat",Ex vivo biodistribution; 60 min after injection,0.44 %ID/g tissue
same,"Uptake of fluorine-18-radioactivity, Brown fat",Ex vivo biodistribution; 90 min after injection,0.95 %ID/g tissue
same,Blood radioactivity compared with [^18F]DPA-714,"Ex vivo biodistribution; ex vivo %ID/g, two-tailed unpaired t test, P ≤ 0.006",significantly lower
same,"Uptake of fluorine-18-radioactivity, Eye x2","Ex vivo biodistribution; eye x2, 5 min after injection",0.32 %ID/g tissue
same,"Uptake of fluorine-18-radioactivity, Eye x2","Ex vivo biodistribution; eye x2, 15 min after injection",0.29 %ID/g tissue
same,"Uptake of fluorine-18-radioactivity, Eye x2","Ex vivo biodistribution; eye x2, 30 min after injection",0.21 %ID/g tissue
same,"Uptake of fluorine-18-radioactivity, Eye x2","Ex vivo biodistribution; eye x2, 60 min after injection",0.16 %ID/g tissue
same,"Uptake of fluorine-18-radioactivity, Eye x2","Ex vivo biodistribution; eye x2, 90 min after injection",0.16 %ID/g tissue
same,"Uptake of fluorine-18-radioactivity, Injection site (tail)",Ex vivo biodistribution; 5 min after injection,0.36 %ID/g tissue
same,"Uptake of fluorine-18-radioactivity, Injection site (tail)",Ex vivo biodistribution; 15 min after injection,0.38 %ID/g tissue
same,"Uptake of fluorine-18-radioactivity, Injection site (tail)",Ex vivo biodistribution; 30 min after injection,0.28 %ID/g tissue
same,"Uptake of fluorine-18-radioactivity, Injection site (tail)",Ex vivo biodistribution; 60 min after injection,0.42 %ID/g tissue
same,"Uptake of fluorine-18-radioactivity, Injection site (tail)",Ex vivo biodistribution; 90 min after injection,0.38 %ID/g tissue
same,"Uptake of fluorine-18-radioactivity, Large int. Wall + contents",Ex vivo biodistribution; 5 min after injection,0.30 %ID/g tissue
same,"Uptake of fluorine-18-radioactivity, Large int. Wall + contents",Ex vivo biodistribution; 15 min after injection,0.31 %ID/g tissue
same,"Uptake of fluorine-18-radioactivity, Large int. Wall + contents",Ex vivo biodistribution; 30 min after injection,0.33 %ID/g tissue
same,"Uptake of fluorine-18-radioactivity, Large int. Wall + contents",Ex vivo biodistribution; 60 min after injection,0.29 %ID/g tissue
same,"Uptake of fluorine-18-radioactivity, Large int. Wall + contents",Ex vivo biodistribution; 90 min after injection,0.28 %ID/g tissue
same,"Uptake of fluorine-18-radioactivity, Liver",Ex vivo biodistribution; 5 min after injection,0.77 %ID/g tissue
same,"Uptake of fluorine-18-radioactivity, Liver",Ex vivo biodistribution; 15 min after injection,0.82 %ID/g tissue
same,"Uptake of fluorine-18-radioactivity, Liver",Ex vivo biodistribution; 30 min after injection,0.49 %ID/g tissue
same,"Uptake of fluorine-18-radioactivity, Liver",Ex vivo biodistribution; 60 min after injection,0.43 %ID/g tissue
same,"Uptake of fluorine-18-radioactivity, Liver",Ex vivo biodistribution; 90 min after injection,0.31 %ID/g tissue
same,"Uptake of fluorine-18-radioactivity, Lung",Ex vivo biodistribution; 5 min after injection,5.94 %ID/g tissue
same,"Uptake of fluorine-18-radioactivity, Lung",Ex vivo biodistribution; 15 min after injection,4.04 %ID/g tissue
same,"Uptake of fluorine-18-radioactivity, Lung",Ex vivo biodistribution; 30 min after injection,2.27 %ID/g tissue
same,"Uptake of fluorine-18-radioactivity, Lung",Ex vivo biodistribution; 60 min after injection,1.79 %ID/g tissue
same,"Uptake of fluorine-18-radioactivity, Lung",Ex vivo biodistribution; 90 min after injection,1.47 %ID/g tissue
same,"Uptake of fluorine-18-radioactivity, Muscle",Ex vivo biodistribution; 5 min after injection,0.07 %ID/g tissue
same,"Uptake of fluorine-18-radioactivity, Muscle",Ex vivo biodistribution; 15 min after injection,0.07 %ID/g tissue
same,"Uptake of fluorine-18-radioactivity, Muscle",Ex vivo biodistribution; 30 min after injection,0.09 %ID/g tissue
same,"Uptake of fluorine-18-radioactivity, Muscle",Ex vivo biodistribution; 60 min after injection,0.11 %ID/g tissue
same,"Uptake of fluorine-18-radioactivity, Muscle",Ex vivo biodistribution; 90 min after injection,0.12 %ID/g tissue
same,"Uptake of fluorine-18-radioactivity, Salivary x2","Ex vivo biodistribution; salivary x2, 5 min after injection",0.70 %ID/g tissue
same,"Uptake of fluorine-18-radioactivity, Salivary x2","Ex vivo biodistribution; salivary x2, 15 min after injection",0.82 %ID/g tissue
same,"Uptake of fluorine-18-radioactivity, Salivary x2","Ex vivo biodistribution; salivary x2, 30 min after injection",1.56 %ID/g tissue
same,"Uptake of fluorine-18-radioactivity, Salivary x2","Ex vivo biodistribution; salivary x2, 60 min after injection",1.21 %ID/g tissue
same,"Uptake of fluorine-18-radioactivity, Salivary x2","Ex vivo biodistribution; salivary x2, 90 min after injection",1.00 %ID/g tissue
same,"Uptake of fluorine-18-radioactivity, Small int. wall + contents",Ex vivo biodistribution; 5 min after injection,1.19 %ID/g tissue
same,"Uptake of fluorine-18-radioactivity, Small int. wall + contents",Ex vivo biodistribution; 15 min after injection,1.47 %ID/g tissue
same,"Uptake of fluorine-18-radioactivity, Small int. wall + contents",Ex vivo biodistribution; 30 min after injection,2.00 %ID/g tissue
same,"Uptake of fluorine-18-radioactivity, Small int. wall + contents",Ex vivo biodistribution; 60 min after injection,1.95 %ID/g tissue
same,"Uptake of fluorine-18-radioactivity, Small int. wall + contents",Ex vivo biodistribution; 90 min after injection,2.59 %ID/g tissue
same,"Uptake of fluorine-18-radioactivity, Stomach wall + contents",Ex vivo biodistribution; 5 min after injection,0.50 %ID/g tissue
same,"Uptake of fluorine-18-radioactivity, Stomach wall + contents",Ex vivo biodistribution; 15 min after injection,0.54 %ID/g tissue
same,"Uptake of fluorine-18-radioactivity, Stomach wall + contents",Ex vivo biodistribution; 30 min after injection,0.93 %ID/g tissue
same,"Uptake of fluorine-18-radioactivity, Stomach wall + contents",Ex vivo biodistribution; 60 min after injection,1.07 %ID/g tissue
same,"Uptake of fluorine-18-radioactivity, Stomach wall + contents",Ex vivo biodistribution; 90 min after injection,0.74 %ID/g tissue
same,"Uptake of fluorine-18-radioactivity, Testis",Ex vivo biodistribution; 5 min after injection,0.21 %ID/g tissue
same,"Uptake of fluorine-18-radioactivity, Testis",Ex vivo biodistribution; 15 min after injection,0.28 %ID/g tissue
same,"Uptake of fluorine-18-radioactivity, Testis",Ex vivo biodistribution; 30 min after injection,0.23 %ID/g tissue
same,"Uptake of fluorine-18-radioactivity, Testis",Ex vivo biodistribution; 60 min after injection,0.26 %ID/g tissue
same,"Uptake of fluorine-18-radioactivity, Testis",Ex vivo biodistribution; 90 min after injection,0.27 %ID/g tissue
same,Ki,CBR,> 1000 nM
